Laboratory results as given in patent US8153821B2, “Compounds” (priority 2008, dated 2012).
Like-named read-outs stand apart in the source and are kept apart here.

How the values were obtained:
[1] = target: T1, human recombinant α4β2 nicotinic receptors (Homo sapiens, UniProt P17787+P43681); test: Radioligand binding, human recombinant α4β2 in SH-EP1 cellular membranes
T1 construct: expressed in transfected cells; host or cells: SH-EP1
Protocol: Preparation of membranes from SH-EP1/human α4β2 clonal cells: Cell pellets from 40 150 mm culture dishes were pooled, and homogenized by Polytron (Kinematica GmbH, Switzerland) in 20 milliliters of ice-cold preparative buffer. […] The resulting pellet was re-suspended in 20 mL of ice-cold preparative buffer and stored at −20° C.
Assay. On the day of the assay, the frozen membranes were thawed and spun at 48,000×g for 20 min. The supernatant was decanted and discarded. The pellet was resuspended in Dulbecco's phosphate buffered saline (PBS, Life Technologies) pH 7.4 and homogenized with the Polytron for 6 seconds. Protein concentrations were determined using a Pierce BCA Protein Assay Kit, with bovine serum albumin as the standard (Pierce Chemical Company, Rockford, Ill.).
Incubation was terminated by rapid filtration on a multi-manifold tissue harvester (Brandel, Gaithersburg, Md.) using GF/B filters presoaked in 0.33% polyethyleneimine (w/v) to reduce non-specific binding. Tissue was rinsed 3 times in PBS, pH 7.4. […] Filters were then counted to determine radioactivity bound to the membranes by liquid scintillation counting (2200CA Tri-Carb LSC, Packard Instruments, 50% efficiency or Wallac Trilux 1450 MicroBeta, 40% efficiency, Perkin Elmer).
Data were expressed as disintegrations per minute (DPMs). […]

rat native α7 receptors = target: T2, rat native α7 receptors (Rattus norvegicus, UniProt Q05941); test: [3H]MLA binding, rat hippocampal membranes
T2 construct: rat native α7 receptors in rat hippocampal membranes; from tissue; host or cells: rat hippocampus (female Sprague-Dawley)
Protocol: Rats (female, Sprague-Dawley), weighing 150-250 g, were maintained on a 12 h light/dark cycle and were allowed free access to water and food supplied by PMI Nutrition International, Inc. Animals were anesthetized with 70% CO2, and then decapitated. Brains were removed and placed on an ice-cold platform. The hippocampus was removed and placed in 10 volumes (weight:volume) of ice-cold preparative buffer (137 mM NaCl, 10.7 mM KCl, 5.8 mM KH2PO4, 8 mM Na2HPO4, 20 mM HEPES (free acid), 5 mM iodoacetamide, 1.6 mM EDTA, pH 7.4); PMSF, dissolved in methanol to a final concentration of 100 μM, was added and the tissue suspension was homogenized by Polytron. […] Protein was determined by the method of Lowry et al., J. Biol. Chem. 193: 265 (1951), using bovine serum albumin as the standard.
The binding of [^3H]MLA was measured using a modification of the methods of Davies et al., Neuropharmacol. […] The binding of [^3H]MLA was determined using a 2 h incubation at 21° C. […] Non-specific binding was determined by inclusion of 50 μM non-radioactive MLA in selected wells.
The inhibition of [^3H]MLA binding by test compounds was determined by including seven different concentrations of the test compound in selected wells. […] Inhibition constants (Ki values), reported in nM, were calculated from the IC50 values using the method of Cheng et al., Biochem. Pharmacol. 22: 3099-3108 (1973).

[2] = target: T3, human native muscle-type nicotinic receptors (likely α1β1γδ) (Homo sapiens, UniProt P02708+P07510+Q07001); test: [3H]epibatidine binding, TE-671 membranes
T3 construct: human native muscle-type nicotinic receptors (likely α1β1γδ); endogenous in cells; host or cells: TE-671 (TE671/RD)

[3] = target: T4, human native ganglion receptors (Homo sapiens, UniProt P30926+P32297); test: Ca flux assay, SH-SY5Y cells; format: cell-based
T4 construct: human native ganglion-type nicotinic receptors (likely α3β4); endogenous in cells; host or cells: SH-SY5Y
Protocol: The cell line SH-SY5Y is a continuous line derived by sequential subcloning of the parental cell line, SK-N-SH, which was originally obtained from a human peripheral neuroblastoma. SH-SY5Y cells express a ganglion-like nAChR (Lukas et al., Mol. Cell. Neurosci. 4: 1 (1993)).
(R)-3-((E)-2-(Pyrrolidin-3-yl)vinyl)-5-(tetrahydropyran-4-yloxy)pyridine or a salt thereof was tested in ganglion and muscle-type nicotinic receptor ion flux assays to examine functional selectivity.

panel of 65 receptors = test: Multiple receptor screening assay; format: binding; conditions: single concentration of 10 μM
Protocol: (R)-3-((E)-2-(Pyrrolidin-3-yl)vinyl)-5-(tetrahydropyran-4-yloxy)pyridine or a salt thereof was tested for selectivity against a panel of 65 receptors.

[4] = format: in vitro ADME; conditions: human
Description: (§1) Therefore any variation of (R)-3-((E)-2-(pyrrolidin-3-yl)vinyl)-5-(tetrahydropyran-4-yloxy)pyridine or a salt thereof metabolism in human due to CYP polymorphism is expected to be less than 2 fold due to the significant renal clearance and low hepatic clearance.

CYP2D6 and FMO3 = format: in vitro ADME; conditions: human
Description: as §1

T4 sequence (P32297 32-505): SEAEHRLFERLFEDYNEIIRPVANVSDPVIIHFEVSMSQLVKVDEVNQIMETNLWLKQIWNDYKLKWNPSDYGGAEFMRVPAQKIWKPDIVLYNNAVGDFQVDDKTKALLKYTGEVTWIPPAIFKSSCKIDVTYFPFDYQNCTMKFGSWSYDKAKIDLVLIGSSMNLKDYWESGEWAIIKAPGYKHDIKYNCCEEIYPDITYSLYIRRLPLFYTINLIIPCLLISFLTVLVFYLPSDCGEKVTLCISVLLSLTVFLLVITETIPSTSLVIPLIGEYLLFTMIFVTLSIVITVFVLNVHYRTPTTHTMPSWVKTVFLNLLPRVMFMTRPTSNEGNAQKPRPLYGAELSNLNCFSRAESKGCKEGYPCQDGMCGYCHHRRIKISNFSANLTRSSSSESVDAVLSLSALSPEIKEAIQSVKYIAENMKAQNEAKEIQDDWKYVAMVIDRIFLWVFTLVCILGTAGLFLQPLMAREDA
T4 sequence (P30926 22-498): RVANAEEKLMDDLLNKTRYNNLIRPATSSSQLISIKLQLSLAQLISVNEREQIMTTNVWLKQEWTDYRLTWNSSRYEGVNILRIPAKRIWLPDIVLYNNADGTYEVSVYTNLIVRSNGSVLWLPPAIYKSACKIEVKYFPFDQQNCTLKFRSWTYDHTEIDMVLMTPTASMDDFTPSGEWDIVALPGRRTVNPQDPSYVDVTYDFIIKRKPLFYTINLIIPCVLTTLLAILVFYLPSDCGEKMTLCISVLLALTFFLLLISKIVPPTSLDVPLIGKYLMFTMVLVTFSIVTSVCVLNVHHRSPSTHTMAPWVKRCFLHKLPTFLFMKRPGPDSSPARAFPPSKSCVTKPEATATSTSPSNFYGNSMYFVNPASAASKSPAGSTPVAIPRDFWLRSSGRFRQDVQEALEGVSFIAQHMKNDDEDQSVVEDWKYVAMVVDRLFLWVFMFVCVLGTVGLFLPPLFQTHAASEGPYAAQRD
T2 sequence (Q05941 23-502): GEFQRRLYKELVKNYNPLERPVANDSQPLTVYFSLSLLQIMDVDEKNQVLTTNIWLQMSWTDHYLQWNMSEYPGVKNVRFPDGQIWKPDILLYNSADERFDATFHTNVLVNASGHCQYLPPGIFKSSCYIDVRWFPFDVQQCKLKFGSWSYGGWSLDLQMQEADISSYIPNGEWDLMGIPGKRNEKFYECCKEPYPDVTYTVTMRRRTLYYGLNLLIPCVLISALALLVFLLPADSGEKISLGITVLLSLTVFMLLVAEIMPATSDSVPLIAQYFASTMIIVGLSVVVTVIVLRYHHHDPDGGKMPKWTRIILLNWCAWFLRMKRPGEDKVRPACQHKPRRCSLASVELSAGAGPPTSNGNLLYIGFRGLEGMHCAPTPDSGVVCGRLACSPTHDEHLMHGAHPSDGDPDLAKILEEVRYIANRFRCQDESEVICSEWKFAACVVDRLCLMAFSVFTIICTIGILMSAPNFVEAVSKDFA
T3 sequence (P07510 23-517): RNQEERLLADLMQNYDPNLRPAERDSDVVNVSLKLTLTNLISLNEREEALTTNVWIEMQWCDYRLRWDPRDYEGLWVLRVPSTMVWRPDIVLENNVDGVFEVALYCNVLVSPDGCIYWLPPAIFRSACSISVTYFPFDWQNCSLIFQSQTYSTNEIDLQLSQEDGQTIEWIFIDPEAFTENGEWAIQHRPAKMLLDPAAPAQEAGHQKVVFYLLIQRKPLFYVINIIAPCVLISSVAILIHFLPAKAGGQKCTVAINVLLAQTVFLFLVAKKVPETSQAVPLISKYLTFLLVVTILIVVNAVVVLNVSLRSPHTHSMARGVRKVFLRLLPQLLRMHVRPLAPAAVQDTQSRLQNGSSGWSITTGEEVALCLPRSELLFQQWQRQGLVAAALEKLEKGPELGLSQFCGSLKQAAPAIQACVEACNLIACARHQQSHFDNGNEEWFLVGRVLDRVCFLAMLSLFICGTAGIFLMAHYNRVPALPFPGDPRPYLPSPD
T3 sequence (Q07001 22-517): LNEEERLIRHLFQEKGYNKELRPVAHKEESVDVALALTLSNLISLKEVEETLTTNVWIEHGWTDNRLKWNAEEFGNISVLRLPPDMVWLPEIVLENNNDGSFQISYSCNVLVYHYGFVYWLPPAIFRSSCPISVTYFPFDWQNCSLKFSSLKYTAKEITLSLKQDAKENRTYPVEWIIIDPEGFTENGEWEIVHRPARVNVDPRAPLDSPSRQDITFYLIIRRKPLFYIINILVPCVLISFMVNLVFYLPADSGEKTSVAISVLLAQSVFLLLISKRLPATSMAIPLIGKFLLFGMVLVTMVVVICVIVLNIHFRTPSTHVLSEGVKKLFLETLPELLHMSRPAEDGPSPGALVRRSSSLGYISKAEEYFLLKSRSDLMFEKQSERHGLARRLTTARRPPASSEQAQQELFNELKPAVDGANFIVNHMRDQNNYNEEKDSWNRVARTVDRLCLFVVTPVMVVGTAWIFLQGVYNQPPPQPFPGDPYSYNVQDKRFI
T3 sequence (P02708 21-457): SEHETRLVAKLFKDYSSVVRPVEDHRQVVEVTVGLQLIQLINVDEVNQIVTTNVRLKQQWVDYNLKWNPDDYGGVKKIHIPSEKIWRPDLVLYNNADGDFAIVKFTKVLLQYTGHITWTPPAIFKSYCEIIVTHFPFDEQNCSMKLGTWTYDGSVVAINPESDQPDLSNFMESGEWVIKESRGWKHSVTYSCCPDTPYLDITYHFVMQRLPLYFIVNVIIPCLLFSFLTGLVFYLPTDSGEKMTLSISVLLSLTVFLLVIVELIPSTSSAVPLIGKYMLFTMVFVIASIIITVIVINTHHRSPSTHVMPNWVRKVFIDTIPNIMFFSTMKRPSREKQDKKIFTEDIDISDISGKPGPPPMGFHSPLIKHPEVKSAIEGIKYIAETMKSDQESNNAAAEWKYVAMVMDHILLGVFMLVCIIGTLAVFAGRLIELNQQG
T3 sequence (P11230 24-501, further chain): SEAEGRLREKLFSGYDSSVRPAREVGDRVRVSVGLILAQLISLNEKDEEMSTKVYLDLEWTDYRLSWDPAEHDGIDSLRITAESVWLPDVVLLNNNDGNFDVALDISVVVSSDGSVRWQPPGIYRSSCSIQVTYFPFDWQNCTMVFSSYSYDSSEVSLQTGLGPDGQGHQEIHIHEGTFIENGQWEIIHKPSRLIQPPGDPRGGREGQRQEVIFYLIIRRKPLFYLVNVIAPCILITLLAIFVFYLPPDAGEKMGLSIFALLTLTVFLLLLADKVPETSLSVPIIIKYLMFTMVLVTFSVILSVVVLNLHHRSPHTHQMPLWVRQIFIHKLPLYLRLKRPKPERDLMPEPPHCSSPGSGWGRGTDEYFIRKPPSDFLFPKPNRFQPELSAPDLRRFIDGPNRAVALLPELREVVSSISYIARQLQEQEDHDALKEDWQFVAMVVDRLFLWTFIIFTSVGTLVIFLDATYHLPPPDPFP
T1 sequence (P43681 29-627 limits assumed): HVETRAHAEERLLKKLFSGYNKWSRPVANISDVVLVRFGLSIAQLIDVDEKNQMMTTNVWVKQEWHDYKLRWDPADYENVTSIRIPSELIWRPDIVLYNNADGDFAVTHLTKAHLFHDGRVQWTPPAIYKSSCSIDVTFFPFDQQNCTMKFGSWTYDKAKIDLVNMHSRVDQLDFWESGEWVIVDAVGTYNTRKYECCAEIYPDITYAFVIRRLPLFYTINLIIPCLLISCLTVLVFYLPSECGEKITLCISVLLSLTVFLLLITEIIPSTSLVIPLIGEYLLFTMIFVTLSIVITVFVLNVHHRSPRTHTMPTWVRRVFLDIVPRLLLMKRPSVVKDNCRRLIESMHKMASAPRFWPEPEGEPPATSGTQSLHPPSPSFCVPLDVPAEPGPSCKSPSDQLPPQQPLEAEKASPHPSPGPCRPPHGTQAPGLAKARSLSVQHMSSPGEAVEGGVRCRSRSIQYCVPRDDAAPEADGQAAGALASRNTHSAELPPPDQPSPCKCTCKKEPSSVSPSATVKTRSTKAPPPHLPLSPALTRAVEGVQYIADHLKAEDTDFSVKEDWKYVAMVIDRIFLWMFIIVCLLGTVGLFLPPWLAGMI
T1 sequence (P17787 26-502): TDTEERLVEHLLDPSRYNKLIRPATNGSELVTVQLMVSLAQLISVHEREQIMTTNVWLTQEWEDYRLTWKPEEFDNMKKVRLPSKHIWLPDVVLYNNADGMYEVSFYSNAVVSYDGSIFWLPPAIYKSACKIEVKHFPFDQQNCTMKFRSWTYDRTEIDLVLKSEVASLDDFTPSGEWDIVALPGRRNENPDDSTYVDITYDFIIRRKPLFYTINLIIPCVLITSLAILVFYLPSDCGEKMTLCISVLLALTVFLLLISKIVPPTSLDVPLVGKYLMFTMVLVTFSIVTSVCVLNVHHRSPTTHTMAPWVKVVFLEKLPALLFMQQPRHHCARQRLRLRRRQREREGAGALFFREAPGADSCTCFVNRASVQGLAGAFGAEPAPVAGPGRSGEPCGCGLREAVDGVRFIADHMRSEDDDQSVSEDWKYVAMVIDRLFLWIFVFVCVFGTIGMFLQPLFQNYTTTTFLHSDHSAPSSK

`C(=C\[C@H]1CCNC1)/c1cncc(OC2CCOCC2)c1` [Compound A, (R)-3-((E)-2-(pyrrolidin-3-yl)vinyl)-5-(tetrahydropyran-4-yloxy)pyridine] gave a Ki [1] of 2 nM, a Ki (rat native α7 receptors) of over 10 µM and a Ki (rat native α7 receptors; read-out: Rat hippocampus (α7) Ki, [3H]methyllycaconitine (MLA), rat hippocampal membranes) of over 10 µM. For the same compound, the Ki [2] was 25 µM, the EC50 [3] was 11 µM and the “Human ganglionic (SH-SY5Y) Emax (Ca flux)” value ([3]; SH-SY5Y cells) was “μM, 13%”. The Emax ([3]; SH-SY5Y cells, read-out: Human ganglionic (SH-SY5Y) Emax (Ca flux)) was 13%, the “Multiple receptor screening assay, receptors hit” value (panel of 65 receptors) was “only to neuronal nicotinic receptors (α-BnTx insensitive)” and the “Multiple receptor screening assay, receptors hit” value (panel of 65 receptors; listed as (R)-3-(2-(pyrrolidin-3-yl)vinyl)-5-((tetrahydro-2H-pyran-4 yl)oxy)pyridine) was “Only nicotinic”. For the same compound, the hepatic turnover rate [4] was “low hepatic turnover rate” and the “enzymes contributing to metabolism” value (CYP2D6 and FMO3) was “both CYP2D6 and FMO3 contributed to the metabolism”.
